From ChEMBL document CHEMBL2163214, “Design, synthesis, calorimetry, and crystallographic analysis of 2-alkylaminoethyl-1,1-bisphosphonates as inhibitors of Trypanosoma cruzi farnesyl diphosphate synthase” (J Med Chem, 2012) come the findings set out here.

The test can be described thus: Binding affinity to Trypanosoma cruzi farnesyl diphosphate synthase at 250 uM at 28 degC by isothermal titration calorimetry. (Isothermal titration calorimetry measures the heat released or taken up as one component is titrated into another.)
The Kd is the constant that tells how readily two partners part at equilibrium. Higher therefore signals lower affinity. Compound `CCCCCNCC(P(=O)(O)O)P(=O)(O)O` came in with a Kd of 1030 nM.
With `CCCCCCNCC(P(=O)(O)O)P(=O)(O)O`, the affinity, expressed as Kd, was 400 nM.
As for `CCCNCC(P(=O)(O)O)P(=O)(O)O`, the Kd was found to be 25 nM.
On to `CCCCCCCNCC(P(=O)(O)O)P(=O)(O)O`, for which binding was put at a Kd of 58.8 nM.
